System: isolated rabbit thoracic aorta preparations
Experiment: Vessel relaxation in isolated rabbit thoracic aorta rings precontracted with noradrenaline
Details: for EC50: Oryctolagus cuniculus

Structure (SMILES)	EC50 [µM]	Max. Relaxation (concentration not given) [%]	Max. Relaxation (@ 1 μM) [%]
CC(=O)N[C@H](C(=O)O)C(C)(C)SN=O (racemic) [SNAP, S-nitroso-N-acetylpenicillamine, reference compound]	–	97.3	–
CO[C@H]1C[C@@H](C(=O)O)C[C@@H]1O[N+](=O)[O-] [Example 1, (+)-(1R,3S,4S)-3-methoxy-4-(nitrooxy)cyclopentanecarboxylic acid]	126	–	37.47
COC(=O)[C@@H]1CC[C@H](OC)[C@@H](O[N+](=O)[O-])C1 [Example 21, (1R,3S,4S)-methyl 4-methoxy-3-(nitrooxy)cyclohexanecarboxylate]	1 ± 0.2	–	–

Now from value to compound, other results behind:

EC50 [µM]	Structure (SMILES)	Max. Relaxation (concentration not given) [%]	Max. Relaxation (@ 1 μM) [%]
6.3 ± 2	COC(=O)[C@@H]1CC[C@@H](O[N+](=O)[O-])[C@H](OC)C1 [Example 22, (1R,3R,4R)-methyl 3-methoxy-4-(nitrooxy)cyclohexanecarboxylate]	–	–
3.5 ± 0.6	COC(=O)[C@@H]1CC[C@H](O[N+](=O)[O-])[C@@H](OC)C1 [Example 23, (1R,3S,4S)-methyl 3-methoxy-4-(nitrooxy)cyclohexanecarboxylate]	–	–
11.1 ± 4.5	COC(=O)[C@@H]1CC[C@@H](OC)[C@H](O[N+](=O)[O-])C1 [Example 24, (1R,3R,4R)-methyl 4-methoxy-3-(nitrooxy)cyclohexanecarboxylate]	–	–

Reference: patent US8530521B2, “Nitrooxy cycloalkane derivatives” (Merck Sharp & Dohme Corp., priority 2008, dated 2013)
